Where two headings read alike, the source gives them in different places.
Legend:
[1] = biological target: CDK2/Cyclin-A kinase complex (Homo sapiens, UniProt P24941); assay: CDK2 IMAP fluorescence polarization assay; type: biochemical
From the text: In order to test the CDK2 activity of the compounds of the invention, the CDK2 assay is a flourescence polarization assay, where the enzyme is a purified active CDK2/Cyclin-A kinase complex and the substrate is a synthesized peptide derived from Histone H1. This assay utilizes the IMAP technology from Molecular Devices. The active CDK2/Cyclin-A complex phosphorylates the peptide substrate, which is conjugated with the TAMRA tag. The phosphorylated site is then recognized by a metal containing molecule that interacts with the TAMRA tag to induce a high flourescence polarization. The compounds that inhibit the CDK2 kinase activity would inhibit the flourescence output of the assay.

CDK4 = CDK4 (Homo sapiens, UniProt P11802); assay: CDK4 HTRF assay; type: biochemical; settings: Table E; read-out: CDK4 HTRF/IC50 [umol l − 1]
[2] = Table E, read-out: CDK2cyA IMAP/IC50 [umol l − 1]

Chain of CDK4 (P11802 whole entry): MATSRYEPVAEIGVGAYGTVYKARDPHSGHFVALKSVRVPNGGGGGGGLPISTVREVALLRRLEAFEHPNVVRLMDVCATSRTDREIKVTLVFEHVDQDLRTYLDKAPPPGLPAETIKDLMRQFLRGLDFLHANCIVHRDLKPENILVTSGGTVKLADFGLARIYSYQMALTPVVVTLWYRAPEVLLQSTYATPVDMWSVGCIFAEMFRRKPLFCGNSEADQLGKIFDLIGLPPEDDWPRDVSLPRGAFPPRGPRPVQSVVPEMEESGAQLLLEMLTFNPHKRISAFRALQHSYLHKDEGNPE
Chain of CDK4 (P24385 whole entry partner): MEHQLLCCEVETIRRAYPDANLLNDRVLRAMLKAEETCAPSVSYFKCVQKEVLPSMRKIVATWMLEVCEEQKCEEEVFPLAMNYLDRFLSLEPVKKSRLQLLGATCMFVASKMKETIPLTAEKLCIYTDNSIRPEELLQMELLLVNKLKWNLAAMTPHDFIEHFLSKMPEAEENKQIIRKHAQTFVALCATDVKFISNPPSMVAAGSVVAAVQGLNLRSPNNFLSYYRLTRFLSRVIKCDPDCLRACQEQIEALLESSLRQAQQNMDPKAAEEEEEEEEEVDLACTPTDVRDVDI

Compound	IC50 [1, 2] [µM]	IC50 (CDK4) [µM]	IC50 ([1]; Table C, read-out: CDK2 IC50) [µM]
Cc1cc(-c2c(C)c3cnc(Nc4ccc(N5CCNCC5)cn4)nc3n2C2CCCC2)on1 [Example 405]	> 10	–	–
c1cc(N2CCNCC2)ccc1Nc1ncc2ccn(C3CCOCC3)c2n1 [Example 235]	> 10	–	–
CCC(CC)n1c(C(=O)Nc2ccccc2)cc2cnc(Nc3ccc(N4CCNCC4)cc3)nc21 [Example 345]	< 10	< 1	–
Cc1cn(C2CCCC2)c2nc(Nc3ccc(N4CCN(S(C)(=O)=O)CC4)cn3)ncc12 [Example 287]	> 10	10	–
Cc1cn(C2CCCC2)c2nc(Nc3ccc(N4CCNCC4)c(F)c3)ncc12 [Example 285]	< 10	–	–
COC(=O)c1c(C)n(C2CCCC2)c2nc(Nc3ccc(N4CCNCC4)cn3)ncc12 [Example 385, 7-Cyclopentyl-6-methyl-2-(5-piperazin-1-yl-pyridin-2-ylamino)-7H-pyrrolo[2,3-d]pyrimidine-5-carboxylic acid methyl ester]	> 10	> 10	–
NC1CCC(n2ccc3cnc(Nc4ccc(N5CCNCC5)cc4)nc32)CC1 (centres unmarked) [Example 243]	< 1	< 1	–
O=C(O)[C@@H]1CCC(n2ccc3cnc(Nc4ccc(N5CCNCC5)cc4)nc32)C1 (some centres unmarked) [Example 248]	< 10	< 1	–
CCC(C(N)=O)n1ccc2cnc(Nc3ccc(N4CCNCC4)cc3)nc21 (centres unmarked) [Example 234]	> 10	–	–
Cc1cn(C2CC2)c2nc(Nc3ccc(N4CCNCC4)cc3)ncc12 [Example 276]	> 10	> 10	–
Cc1cn(-c2ccccc2)c2nc(Nc3ccc(N4CCNCC4)cc3)ncc12 [Example 273]	> 10	> 10	–
c1cc(N2CCNCC2)ccc1Nc1ncc2ccn(C3CCCCC3)c2n1 [Example 246]	< 1	< 1	–
CCOC(=O)C(C(C)C)n1ccc2cnc(Nc3ccc(N4CCN(C(C)=O)CC4)cc3)nc21 (centres unmarked) [Example 223]	> 10	–	–
Cc1cn(C2CC2)c2nc(Nc3ccc(N4CCNCC4)cn3)ncc12 [Example 271]	> 10	–	–
COc1cccc(Nc2ncc3c(C)cn(C4CCCC4)c3n2)c1 [Example 294]	< 10	10	–
CCC(CC)n1c(C(=O)N(C)C)cc2cnc(Nc3ccc(N4CCNCC4)cc3)nc21 [Example 335, 7-(1-ethyl-propyl)-2-(4-piperazin-1-yl-phenylamino)-7H-pyrrolo[2,3-d]pyrimidine-6-carboxylic acid dimethyl amide]	< 10	< 1	–
CCC(CC)n1c(C(C)O)cc2cnc(Nc3ccc(N4CCN(C(C)=O)CC4)cc3)nc21 (centres unmarked) [Example 376, 1-(4-{4-[7-(1-Ethyl-propyl)-6-(1-hydroxy-ethyl)-7H-pyrrolo[2,3-d]pyrimidin-2-ylamino]-phenyl}-piperazin-1-yl)-ethanone]	< 10	< 1	–
Cc1cn(-c2nccs2)c2nc(Nc3ccc(N4CCNCC4)cn3)ncc12 [Example 321]	> 10	–	–
Cc1ccc(Nc2ncc3ccn(C4CCCC4)c3n2)cc1 [Example 435]	< 10	> 10	–
CCC(CC)n1c(C(=O)N2CCCC2)cc2cnc(Nc3ccc(N4CCNCC4)cc3)nc21 [Example 337]	> 10	–	–
CCC(CC)n1c(C(C)=O)cc2cnc(Nc3ccc(N4CCN(C(C)=O)CC4)cc3)nc21 [Example 377, 1-[2-[4-(4-Acetyl-piperazin-1-yl)-phenylamino]-7-(1-ethyl-propyl)-7H-pyrrolo[2,3-d]pyrimidin-6-yl]-ethanone]	< 1	< 1	–
CN(C)c1ccc(Nc2ncc3ccn(C4CCCC4)c3n2)cc1 [Example 262]	< 10	> 10	–
c1ncc(-c2ccc(Nc3ncc4ccn(C5CCCC5)c4n3)cc2)o1 [Example 258]	< 10	> 10	–

Compound	IC50 [1, 2] [µM]	IC50 (CDK4) [µM]	IC50 ([1]; Table C, read-out: CDK2 IC50) [µM]
CC1CCC(n2ccc3cnc(Nc4ccc(N5CCNCC5)cc4)nc32)CC1 (centres unmarked) [Example 240]	< 10	< 1	–
CCC(CC)n1c(C(=O)N2CCOCC2)cc2cnc(Nc3ccc(N4CCNCC4)cc3)nc21 [Example 343]	> 10	–	–
CN1CCN(c2ccc(Nc3ncc4ccn(C5CCCC5)c4n3)cc2)CC1 [Example 253]	< 10	–	–
CCC(CC)n1ccc2cnc(Nc3ccc(N4CCNCC4)cc3)nc21 [Example 202, [7-(1-Ethyl-propyl)-7H-pyrrolo[2,3-d]pyrimidin-2-yl]-(4-piperazin-1-yl-phenyl)-amine]	< 10	< 1	–
COC(=O)c1c(C)n(C2CCCC2)c2nc(Nc3ccc(N4CCNCC4)cc3)ncc12 [Example 408]	> 10	> 10	–
CCC(=O)N1CCN(c2ccc(Nc3ncc4ccn(C(CC)CC)c4n3)cc2)CC1 [Example 237]	< 10	–	–
Cc1cn(C2CCCC2)c2nc(Nc3ccncc3)ncc12 [Example 298]	< 1	–	–
Cc1cn(C2CCCC2)c2nc(Nc3cccc(Cl)c3)ncc12 [Example 299]	< 10	10	–
CC(=O)N1CCN(c2ccc(Nc3ncc4ccn(C5CCOCC5)c4n3)cc2)CC1 [Example 228]	< 10	–	–
Cc1cn(C2CCCC2)c2nc(Nc3ccc(S(N)(=O)=O)cc3)ncc12 [Example 288]	< 1	–	–
CC1CCCC(n2ccc3cnc(Nc4ccc(N5CCNCC5)cc4)nc32)C1 (centres unmarked) [Example 242]	< 10	< 1	–
Cc1c(C(=O)O)n(C2CCCC2)c2nc(Nc3ccc(N4CCNCC4)cn3)ncc12 [Example 444]	> 10	< 1	–
CCC(CC)n1c(C(=O)NC2CCCC2)cc2cnc(Nc3ccc(N4CCNCC4)cc3)nc21 [Example 344]	> 10	–	–
Clc1cn(C2CCCC2)c2nc(Nc3ccc(N4CCNCC4)cn3)ncc12 [Example 433]	> 10	< 1	–
CC(=O)N1CCN(c2ccc(Nc3ncc4c(C)cn(C5CCCCC5)c4n3)cc2)CC1 [Example 274]	> 10	–	–
CCC(CC)n1c(C(=O)OC)cc2cnc(Nc3ccc(N4CCN(C(C)=O)CC4)cc3)nc21 [Example 373, 2-[4-(4-Acetyl-piperazin-1-yl)-phenylamino]-7-(1-ethyl-propyl)-7H-pyrrolo[2,3-d]pyrimidine-6-carboxylic acid methyl ester]	< 10	–	–
CCOC(=O)C(C(C)C)n1ccc2cnc(Nc3ccc(N4CCNCC4)cc3)nc21 (centres unmarked) [Example 231]	> 10	< 1	–
Cc1cn(C2CCCC2)c2nc(Nc3ccccc3F)ncc12 [Example 441]	> 10	10	–
CC(C)c1cn(C2CCCC2)c2nc(Nc3ccc(N4CCNCC4)cn3)ncc12 [Example 440]	> 10	–	–
CN(C)CC1CCC(n2ccc3cnc(Nc4ccc(N5CCNCC5)cc4)nc32)C1 (centres unmarked) [Example 249]	< 10	–	–
CCC(CC)n1c(CNC(C)C)cc2cnc(Nc3ccc(N4CCN(C(C)=O)CC4)cc3)nc21 [Example 366]	< 10	–	–
CC(=O)N1CCN(c2ccc(Nc3ncc4ccn(C5CCCC(C)C5)c4n3)cc2)CC1 (centres unmarked) [Example 241]	< 10	–	–
CCCCNC(=O)c1cc2cnc(Nc3ccc(N4CCNCC4)cc3)nc2n1C(CC)CC [Example 336]	> 10	–	–

Compound	IC50 [1, 2] [µM]	IC50 (CDK4) [µM]	IC50 ([1]; Table C, read-out: CDK2 IC50) [µM]
Cc1cn(C2CCCC2)c2nc(Nc3ccc(F)cc3)ncc12 [Example 442]	< 10	10	–
Cc1cn(C2CC2)c2nc(Nc3ccc(N4CCN(C)CC4)cc3)ncc12 [Example 270]	> 10	–	–
CCc1cn(C2CCCC2)c2nc(Nc3ccc(N4CCNCC4)cc3)ncc12 [Example 438]	< 10	–	–
Cc1cn(C2CCCC2)c2nc(Nc3cccnc3)ncc12 [Example 300]	< 1	–	–
CC1CN(C2CCCC2)c2nc(Nc3ccc(N4CCN(C)CC4)cc3)ncc21 (centres unmarked)	–	–	> 10
Cc1cn(-c2cccnc2)c2nc(Nc3ccc(N4CCNCC4)cc3)ncc12 [Example 322]	> 10	–	–
CC(=O)N1CCN(c2ccc(Nc3ncc4ccn(C5CCCCC5=O)c4n3)cc2)CC1 (centres unmarked) [Example 226]	> 10	–	–
CC(=O)c1c(C)c2cnc(Nc3ccc(N4CCNCC4)cn3)nc2n1C1CCOCC1 [Example 388]	> 10	–	–
CCC(C(N)=O)n1ccc2cnc(Nc3ccc(N4CCN(C(C)=O)CC4)cc3)nc21 (centres unmarked) [Example 227]	< 10	–	–
CC(=O)N1CCN(c2ccc(Nc3ncc4ccn(C5CCCC5)c4n3)nc2)CC1 [Example 252]	> 10	–	–
CCC(CC)n1c(CNC(C)C)cc2cnc(Nc3ccc(N4CCNCC4)cc3)nc21 [Example 367]	< 10	–	–
CCC(CC)n1ccc2cnc(Nc3ccc(N4CCN(C(C)=O)CC4)cc3)nc21 [Example 201]	< 10	–	–
CC(=O)N1CCN(c2ccc(Nc3ncc4ccn(C5CCCC5)c4n3)cc2)CC1 [Example 254]	< 1	–	–
CCC(C)n1ccc2cnc(Nc3ccc(N4CCN(C(C)=O)CC4)cc3)nc21 (centres unmarked) [Example 222]	< 10	–	–
CCC(C(=O)OC)n1ccc2cnc(Nc3ccc(N4CCN(C(C)=O)CC4)cc3)nc21 (centres unmarked) [Example 219]	< 10	–	–
Cc1cn(-c2ccccc2)c2nc(Nc3ccc(N4CCNCC4)cc3)ncc12 [Example 437]	> 10	–	–
Cc1cn(C2CCCC2)c2nc(Nc3ccc(N4CCNCC4)nc3)ncc12 [Example 283]	> 10	–	–
Cc1cn(C2CCCC2)c2nc(Nc3ccc(N4CCN(S(C)(=O)=O)CC4)cc3)ncc12 [Example 286]	< 10	–	–
CC(=O)N1CCN(c2ccc(Nc3ncc4ccn(C5CCC(C)CC5)c4n3)cc2)CC1 (centres unmarked) [Example 236]	< 1	–	–
Cc1cn(-c2ccccn2)c2nc(Nc3ccc(N4CCNCC4)cn3)ncc12 [Example 320, (5-Methyl-7-pyridin-2-yl-7H-pyrrolo[2,3-d]pyrimidin-2-yl)-(5-piperazin-1-yl-pyridin-2-yl)-amine]	> 10	–	–
CCC(C(=O)OC)n1ccc2cnc(Nc3ccc(N4CCNCC4)cc3)nc21 (centres unmarked) [Example 221]	< 10	–	–
